Tested on: live anesthetized rats
Settings: rat, in vivo

Which rhythm disturbances does the source give for `CNCC(O)c1ccc(O)c(O)c1` (stereo not shown) [Adrenalin] here?
Its rhythm disturbances is “induced rhythm disturbances”.

Source: US20140323414A1 (priority 2011, published 2014)
